Data as given in BigSolDB 2.1.

NC(N)=S
Details	solubility (mole fraction)
in ethanol, 292.65 K	0.0224
in ethanol, 293.85 K	0.0227
in ethanol, 299.45 K	0.0256
in ethanol, 302.75 K	0.0281
in ethanol, 305.85 K	0.0295
in ethanol, 308.95 K	0.0324
in ethanol, 309.4 K	0.0331
in ethanol, 311.65 K	0.0345
in ethanol, 312.55 K	0.035
in ethanol, 312.75 K	0.0353
in ethanol, 313.9 K	0.0364
in ethanol, 314.35 K	0.0375
in ethanol, 315.55 K	0.0384
in ethanol, 316.4 K	0.0386
in ethanol, 318.2 K	0.0399
in ethanol, 320 K	0.0422
in methanol, 298.65 K	0.0534
in methanol, 301.45 K	0.0565
in methanol, 304.35 K	0.0606
in methanol, 307.85 K	0.0643
in methanol, 309.05 K	0.0667
in methanol, 311.25 K	0.0702
in methanol, 314.55 K	0.0761
in methanol, 319.45 K	0.0821
in methanol, 321.25 K	0.0872
